Test [1] deals with mice subjected to SCI. Briefly: Murine model of spinal cord ischemia (SCI) with delayed paraplegia; motor function by Basso Mouse Scale and survival after preconditioning. It is filed as in vivo. To be noted: preconditioning 200 mg/kg IP daily for 4 days in DMSO, vs DMSO alone. How it is done: Briefly, under anesthesia and mechanical ventilation via endotracheal intubation, SCI was induced by placing the first clip on the aortic arch between the left common carotid artery and the left subclavian artery and the second clip on the origin of the left subclavian artery. The completeness of the occlusion was ascertained by an immediate and sustained loss of any detectable pulse pressure in the femoral artery pressure tracing. After 5 min of ischemia, the clips were removed, and the chest was closed in layers. At 10 minutes of reperfusion, the arterial catheter was removed, incisions were closed, and animals were allowed to recover from anesthesia. Temperature of erector spinae muscle was monitored and maintained at 37.5° C. during whole surgery until recovery from anesthesia. In sham-operated mice, whole surgical procedure was performed as described, but no clips were applied. Motor function was quantified serially at pre-SCI, 24, 48, and 72 h after spinal cord ischemia by the Basso Mouse Scale (BMS) (Basso et al., 2006; Kakinohana et al., 2011). The maximum deficit is indicated by a score of 0. Although BMS score<6 (0 to 5) indicates paraplegia, BMS score>6 (6 to 9) indicates ability to walk.
To examine preventive effects of GSSSG against neurofunctional deficit after SCI, mice were subjected to preconditioning with GSSSG treatment before induction of SCI. […]

The test system of test [2] is SH-SY5Y cells. Briefly: MPP+-induced SH-SY5Y cell death, cell viability by crystal violet assay. The format is cell-based. To be noted: MPP+ 2 mM, DMEM/F12 (20% FBS), 37° C., 24 h. How it is done: The effects of GSSSG on 1-methyl-4-phenylpyridinium (MPP+)-induced neuronal (SH-SY5Y cell) death were evaluated. MPP+-poisoning is an in vitro model of Parkinson's disease.
SH-SY5Y cells were incubated with or without MPP+ (2 mM) in DMEM/F12 (20% FBS) with or without drugs at 37° C. for 24 h. Cell viability was measured using the crystal violet assay.

Each structure is given as a SMILES string.

On to `N[C@@H](CCC(=O)N[C@@H](CSSSC[C@H](NC(=O)CC[C@H](N)C(=O)O)C(=O)NCC(=O)O)C(=O)NCC(=O)O)C(=O)O` [GSSSG, Glutathione trisulfide], for which, in test [1] (SCI 24 h after last administration, BMS up to 72 h), the “Motor function (Basso Mouse Scale, BMS) / paraplegia after SCI” value was “prevented motor functional deficit and paraplegia”. For the same compound, the “Survival rate of mice after SCI” value in test [1] is “did not change survival rate”. Besides, the “Protection from MPP+-induced cell death (cell viability)” value in test [2] is given as “protective effect”.
Regarding `[Na+].[Na+].[S-2]` [Na2S, reference compound], in test [2], the “Protection from MPP+-induced cell death (cell viability)” value was “but not Na2S, protected”.

For the origin of these results see patent publication US12582693B2, “Glutathione trisulfide (GSSSG) in neuroprotection” (The General Hospital Corporation, priority 2020, dated 2026).
